Test results as given in paper PMC9413440, “An Iterative Approach Guides Discovery of the FabI Inhibitor Fabimycin, a Late-Stage Antibiotic Candidate with In Vivo Efficacy against Drug-Resistant Gram-Negative Infections” (ACS Central Science, 2022).
In brackets after ≈: the same amount, converted by molar mass.

Columns and labels:
[1] = tested on: E. coli MG1655; assay: MIC, broth microdilution (CLSI); assay type: cell-based; conditions: Escherichia coli
Procedure: (§1) II. Materials and Methods for Biological Experiments
(§2) S. aureus ATCC 29213 and E. coli MG1655 were obtained from the American Type Culture Collection (ATCC). E. coli BW25113 and E. coli JW5503 were obtained from the Keio Collection. AR-bank strains were obtained from the Centers for Disease Control and Prevention and FDA Antibiotic Resistance Isolate Bank.
(§3) Antimicrobial susceptibility tests
(§4) Susceptibility testing was performed in biological triplicate, unless noted otherwise, using the micro-dilution broth method as outlined by the Clinical and Laboratory Standards Institute. Bacteria were cultured with cation-adjusted Mueller Hinton broth (Sigma Aldrich, catalogue number: 90922). […]
(§5) NH3: m/z 391.2 → 171.0. Fabimycin: m/z 405.3 → 145.3. Power analysis was not used to determine the number of replicates. Error bars represent the standard error of the mean of three biological replicates. All compounds evaluated in biological assays were ≥95% pure.

[2] = tested on: S. aureus ATCC 29213; assay: MIC, broth microdilution (CLSI); assay type: cell-based; conditions: Staphylococcus aureus, ATCC29213; S. aureus 29213
Procedure: as §1, §2, §3, §4, §5

[3] = tested on: E. coli ΔtolC (JW5503); assay: MIC, broth microdilution (CLSI); assay type: cell-based, Escherichia coli
Procedure: as §1, §2, §3, §4, §5

[4] = tested on: A. baumannii AR-0033; assay: MIC, broth microdilution (CLSI); assay type: cell-based; conditions: Acinetobacter baumannii, AR0033; A. baumannii AR-0033 clinical isolate; † = dose-independent trailing growth
Procedure: as §1, §2, §3, §4, §5

[5] = tested on: A. baumannii AR-0273; assay: MIC, broth microdilution (CLSI); assay type: cell-based; conditions: Acinetobacter baumannii, AR0273; A. baumannii AR-0273 clinical isolate
Procedure: as §1, §2, §3, §4, §5

[6] = tested on: A. baumannii AR-0299; assay: MIC, broth microdilution (CLSI); assay type: cell-based; conditions: Acinetobacter baumannii, AR0299; A. baumannii AR-0299 clinical isolate; † = dose-independent trailing growth
Procedure: as §1, §2, §3, §4, §5

[7] = tested on: E. coli AR-0048; assay: MIC, broth microdilution (CLSI); assay type: cell-based; conditions: Escherichia coli, AR0048; E. coli AR-0048 clinical isolate
Procedure: as §1, §2, §3, §4, §5

[8] = tested on: E. coli AR-0085; assay: MIC, broth microdilution (CLSI); assay type: cell-based; conditions: Escherichia coli, AR0085; E. coli AR-0085 clinical isolate
Procedure: as §1, §2, §3, §4, §5

[9] = tested on: K. pneumoniae AR-0066; assay: MIC, broth microdilution (CLSI); assay type: cell-based; conditions: Klebsiella pneumoniae, AR0066; K. pneumoniae AR-0066 clinical isolate
Procedure: as §1, §2, §3, §4, §5

[10] = tested on: K. pneumoniae AR-0560; assay: MIC, broth microdilution (CLSI); assay type: cell-based; conditions: Klebsiella pneumoniae, AR0560; K. pneumoniae AR-0560 clinical isolate
Procedure: as §1, §2, §3, §4, §5

[11] = tested on: K. pneumoniae BAA-2472; assay: MIC, broth microdilution (CLSI); assay type: cell-based; conditions: Klebsiella pneumoniae, BAA2472
Procedure: as §1, §2, §3, §4, §5

[12] = tested on: A. baumannii AR-0313; assay: MIC, broth microdilution (CLSI); assay type: cell-based; conditions: Acinetobacter baumannii, AR0313; A. baumannii AR-0313 clinical isolate; † = dose-independent trailing growth
Procedure: as §1, §2, §3, §4
(§6) Error bars represent the standard error of the mean of three biological replicates. All compounds evaluated in biological assays were ≥95% pure.

[13] = tested on: K. pneumoniae AR-0113; assay: MIC, broth microdilution (CLSI); assay type: cell-based; conditions: Klebsiella pneumoniae, AR0113; K. pneumoniae AR-0113 clinical isolate
Procedure: as §1, §2, §3, §4, §6

[14] = molecular target: A. baumannii FabI (Acinetobacter baumannii, UniProt D0CAD5); assay: In vitro FabI enzymatic inhibition assay; assay type: biochemical; conditions: AbFabI; Morrison's quadratic fit; 5 nM enzyme; read-out: Ki app
Procedure: (§7) supplemented with 100 µg/mL ampicillin at 37°C until OD600 reached 0.6-0.7. The cells were induced with 1mM IPTG and incubated for 20 hours at 18°C and spun down at 8000 rpm for 15 minutes. Cell pellet was resuspended in the lysis buffer (50 mM Tris-HCl pH 8.0, 500 mM Na Cl, 20 mM imidazole, 10% glycerol, 0.5 mM TCEP, protease inhibitor and Lysonase) and passed through microfluidizer followed by centrifugation and filtration to remove cell debris. The clarified lysate was supplemented with 20 mM imidazole and passed over a HisTrap column (Cytiva) pre-equilibrated with the wash buffer (50 mM Tris-HCl pH 8.0, 500 mM NaCl, 20 mM imidazole, 10% glycerol, 0.5 mM TCEP). The column was washed with the wash buffer and eluted over a 20-500 mM imidazole gradient. The appropriate fractions were pooled, and the histidine tag was removed by TEV cleavage. The protein mixture was passed over a HisTrap column to separate the cleaved protein from the uncleaved ones. The cleaved protein was pooled and passed over an S75 size exclusion column (GE LifeSciences) pre-equilibrated with 50 mM Tris-HCl pH 8.0, 500 mM NaCl, 0.5 mM TCEP and 10% glycerol. Fractions containing pure protein were pooled, concentrated at 10 mg/mL and stored at -80°C. […]
(§8) In vitro FabI enzymatic inhibition assay
(§9) Recombinant E. coli and A. baummani FabI enzymes were used in a continuous NADH absorbance assay (20 µL in 384w format). Compounds and the Crotonyl-CoA substrate (Sigma–Aldrich 28007) were dispensed into a plate (GeinerBio-One 781101). The reaction was initiated by the addition of a reaction master mix solution containing enzyme and NADH (Sigma–Aldrich N8129) suspended in reaction buffer (50 mM HEPES pH 7.4, 150 mM NaCl, 1 mM EDTA, 0.01 mg/mL BSA, 0.01% Tween). Final concentrations were 5 nM enzyme, 150 μM Crotonyl-CoA, 380 μM NADH, 0.05% DMSO in 1x reaction buffer. After shaking for 5 seconds the reaction was monitored at NADH absorbance (340nm, 25°C) using a Molecular Devices SpectraMax M5 microplate reader. The linear portion of the progress curve was fit using plate-reader software. Percentage activity was calculated relative to DMSO only and no-substrate controls in each plate and the data were fit to Morrison’s quadratic using Graphpad Prism 9.3 to obtain apparent inhibition constant (Ki app) values. […]
(§10) 480 Real-Time PCR System as a function of a temperature ramp (25-95°C; 0.1°/s) and the Tm was calculated using the […]

[15] = molecular target: T1, E. coli FabI (Escherichia coli, UniProt P0AEK4); assay: In vitro FabI enzymatic inhibition assay; assay type: biochemical; conditions: EcFabI; Morrison's quadratic fit; 5 nM enzyme; read-out: Ki app
T1 construct: His(6) with TEV site (cleaved yes); made in house; host or cells: E. coli BL21(DE3)
Procedure: as §7, §8, §9, §10

[16] = tested on: E. coli MG1655; set-up: method as in PMID 31740764; conditions: cited from earlier work
[17] = set-up: method as in earlier work; conditions: mice, 20% SBE-β-CD in H2O, IP, ref 19 (SI ref 3), cited from earlier work
[18] = tested on: E. coli MG1655; assay: Serial passaging; assay type: cell-based, Escherichia coli; conditions: E. coli MG1655, subinhibitory concentration, 21 days
Procedure: Serial passaging procedure was done as reported in literature.5 Briefly, E. coli MG1655 cells were grown in 0.6 mL of MH media containing fabimycin and ciprofloxacin (control) at different concentrations. Cells were added to the respective compounds at 0.25X, 0.5X, 1X, 2X, and 4X to start. At 22-24 hours the cultures were checked for growth. […]
compound at varying concentrations based off of the MIC. This serial passaging was repeated for 21 days. […]
All cells were cultured […]
at 37 °C under a 5% CO2 environment. Cell lines were authenticated by a commercial vendor and inspected visually in house. Cell lines were not tested for Mycoplasma contamination. The media was prepared by the University of Illinois School of Chemical Sciences Cell Media Facility.
H. sapiens HFF-1, A549, and HepG2 cells were seeded (3,000-6,000 cells/well) in a 96-well plate (Greiner Bio-One;

[19] = tested on: K. pneumoniae clinical isolates (n=100); assay: MIC50/MIC90, clinical isolate panel; assay type: cell-based; conditions: Klebsiella pneumoniae; K. pneumoniae (n=100) clinical isolates
From the text: Figure 4 Antimicrobial activity of fabimycin against clinical isolates. (A) The susceptibility of clinical isolates (Gram-negative species and S. aureus) to fabimycin, Debio-1452-NH3, and Debio-1452. MICs performed in biological triplicate. (B) Further exploration of the breadth of fabimycin’s antibacterial activity against diverse clinical isolate panels of K. pneumoniae and A. baumannii, as compared to levofloxacin. MICs performed in biological duplicate.
as §1, §2, §3, §4, §6

[20] = tested on: A. baumannii clinical isolates (n=100); assay: MIC50/MIC90, clinical isolate panel; assay type: cell-based; conditions: Acinetobacter baumannii; A. baumannii (n=100) clinical isolates
[21] = E. coli ΔtolC = JW5503, efflux-deficient

Chain of A. baumannii FabI (D0CAD5 entry or part of it): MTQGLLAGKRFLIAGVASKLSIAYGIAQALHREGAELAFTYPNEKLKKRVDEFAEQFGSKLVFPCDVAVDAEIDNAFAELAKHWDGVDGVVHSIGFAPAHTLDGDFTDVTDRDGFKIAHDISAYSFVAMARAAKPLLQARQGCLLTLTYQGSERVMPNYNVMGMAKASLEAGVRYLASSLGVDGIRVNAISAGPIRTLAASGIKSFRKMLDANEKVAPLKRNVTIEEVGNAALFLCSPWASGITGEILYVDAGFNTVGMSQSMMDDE
T1 sequence (P0AEK4 whole entry): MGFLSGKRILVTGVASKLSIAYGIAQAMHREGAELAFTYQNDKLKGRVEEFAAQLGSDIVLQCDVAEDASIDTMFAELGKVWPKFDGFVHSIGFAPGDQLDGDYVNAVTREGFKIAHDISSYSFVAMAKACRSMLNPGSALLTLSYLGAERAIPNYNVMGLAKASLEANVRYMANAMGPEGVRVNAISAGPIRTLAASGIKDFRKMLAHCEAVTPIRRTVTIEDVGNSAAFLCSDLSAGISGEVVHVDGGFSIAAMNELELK

SMILES | MIC [1] [mg/L] | MIC [2] [mg/L] | MIC ([3]; Escherichia coli) [mg/L] | MIC [4] [mg/L] | MIC [5] [mg/L] | MIC [6] [mg/L] | MIC [7] [mg/L] | MIC [8] [mg/L] | MIC [9] [mg/L] | MIC [10] [mg/L] | MIC [11] [mg/L] | MIC [3, 21] [mg/L] | MIC [12] [mg/L] | MIC [13] [mg/L] | Ki [14] [µM] | Ki [15] [µM] | accumulation in Gram-negative bacteria (class in Figure 1A) [16] | further results
Cc1c(CN(C)C(=O)/C=C/c2cnc3c(c2)CCC(CCN)C(=O)N3)oc2ccccc12 (racemic) [(±)-9] | 32 (≈ 74 µM) | 0.062 (≈ 0.143 µM) | 0.125 (≈ 0.289 µM) |  |  |  |  |  |  |  |  |  |  |  |  |  |  | 
Cc1c(CN(C)C(=O)/C=C/c2cnc3c(c2)CCC(=O)N3)oc2ccccc12 [Debio-1452, reference compound] |  |  |  | > 32 | > 32 | > 32 | > 32 | > 32 | > 32 | > 32 | > 32 | 0.062 (≈ 0.165 µM) | > 32 | > 32 | 0.431 ± 0.085 | 0.097 ± 0.019 | Non-accumulator | 
Cc1c(CN(C)C(=O)/C=C/c2cnc3c(c2)CC(N)C(=O)N3)oc2ccccc12 (stereo not drawn) [Debio-1452-NH3, reference compound] |  |  |  | 32 (≈ 82 µM) | 32 (≈ 82 µM) | 32 (≈ 82 µM) | 32 (≈ 82 µM) | 16 (≈ 41 µM) | 32 (≈ 82 µM) | 32 (≈ 82 µM) | 16 (≈ 41 µM) | 0.062 (≈ 0.159 µM) | 32 (≈ 82 µM) | 32 (≈ 82 µM) | 0.013 ± 0.002 | 0.009 ± 0.001 | Accumulator | Multi-day QD dosing, MTD ([17]; 5d): 50 mg/kg; Single-dose MTD [17]: 50 mg/kg
O=C(O)c1cn(C2CC2)c2cc(N3CCNCC3)c(F)cc2c1=O [ciprofloxacin, reference compound] |  |  |  |  |  |  |  |  |  |  |  |  |  |  |  |  |  | increase in the MIC after serial passaging [18]: 128 fold
Cc1c(CN(C)C(=O)/C=C/c2cnc3c(c2)CC2(CNC2)C(=O)N3)oc2ccccc12 [compound 2] | 4 (≈ 9.6 µM) | 0.016 (≈ 0.0384 µM) | 0.031 (≈ 0.0744 µM) | 8 (≈ 19.2 µM) | 8 (≈ 19.2 µM) | 16 (≈ 38.4 µM) | 8 (≈ 19.2 µM) | 4 (≈ 9.6 µM) | 8 (≈ 19.2 µM) | 16 (≈ 38.4 µM) | 8 (≈ 19.2 µM) |  | 16 (≈ 38.4 µM) | 16 (≈ 38.4 µM) |  |  |  | 
C[C@H]1COc2c(N3CCN(C)CC3)c(F)cc3c(=O)c(C(=O)O)cn1c23 [levofloxacin, reference compound] |  |  |  |  |  |  |  |  |  |  |  |  |  |  |  |  |  | MIC50 [19]: 0.5 mg/L (≈ 1.38 µM); MIC90 [19]: 32 mg/L (≈ 88.6 µM); MIC50 [20]: 4 mg/L (≈ 11.1 µM); MIC90 [20]: 32 mg/L (≈ 88.6 µM)
